Experimental data: article PMC5733478, “A Non-imaging High Throughput Approach to Chemical Library Screening at the Unmodified Adenosine-A3 Receptor in Living Cells” (Frontiers in Pharmacology, 2017)
Structures can show the parent of a compound that is named as a salt.

What follows are compounds tested against T1, human A3AR (Homo sapiens, UniProt P0DMS8) (assay: LOPAC library primary screen: single concentration (10 μM) inhibition of 25 nM CA200645 binding, PHERAstar FS). Conditions: not given.
T1 construct: expressed in transfected cells
T1 sequence (P0DMS8 1-318): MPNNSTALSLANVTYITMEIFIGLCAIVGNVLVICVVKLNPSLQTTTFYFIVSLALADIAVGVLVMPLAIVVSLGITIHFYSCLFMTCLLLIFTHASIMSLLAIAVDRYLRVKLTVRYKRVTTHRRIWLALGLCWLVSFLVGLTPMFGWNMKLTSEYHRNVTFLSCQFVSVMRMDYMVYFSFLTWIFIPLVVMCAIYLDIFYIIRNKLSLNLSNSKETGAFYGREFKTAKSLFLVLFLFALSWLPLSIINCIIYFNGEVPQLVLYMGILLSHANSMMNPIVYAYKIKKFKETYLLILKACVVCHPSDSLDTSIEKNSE

In order of rising “% 25 nM CA200645 binding” value:
1. Nc1nc2ccc(Cl)cc2c2nc(-c3ccco3)nn12 [CGS-15943]  30.0 ± 3.0%
2. C[C@H](Cc1ccc2c(c1)OC(C(=O)[O-])(C(=O)[O-])O2)NC[C@H](O)c1cccc(Cl)c1.[Na+].[Na+] [CL 316,243]  38.7 ± 18.1%
3. CNc1ccc2oc(C[C@H]3O[C@@]4(CC[C@H]3C)O[C@H]([C@H](C)C(=O)c3ccc[nH]3)[C@H](C)C[C@H]4C)nc2c1C(=O)O [Calcimycin]  38.9 ± 3.3%
4. Clc1ccc(C(c2ccc(Cl)cc2)n2cc[n+](CC(OCc3ccc(Cl)cc3Cl)c3ccc(Cl)cc3Cl)c2)cc1 (centres unmarked) [Calmidazolium chloride]  54.4 ± 19.1%
5. Nc1nc(Nc2ccccc2)nc2c1ncn2[C@@H]1O[C@H](CO)[C@@H](O)[C@H]1O [CV1808, 2-phenylaminoadenosine, reference compound]  55.3 ± 19.9%
6. CCCCN(CC)c1nc(C)nc2c1c(C)cn2-c1c(C)cc(C)cc1C.Cl [CP-154526 hydrochloride]  77.3 ± 23.1%
7. O=C(/C=C/c1ccc(O)c(O)c1)OCCc1ccccc1 [Caffeic acid phenethyl ester]  79.3 ± 10.7%
8. Nc1ncnc2n[nH]c(Nc3ccc(F)cc3)c12 [CGP 57380]  81.2 ± 23.0%
9. O=C(c1ccc(Cl)cc1)N1CCN(c2ccc([N+](=O)[O-])c3ncccc23)CC1 [CPNQ]  83.4 ± 4.6%
10. Fc1ccc2[nH]c(CN3CCN(c4ccccn4)CC3)cc2c1 [CP-226269]  83.6 ± 17.8%
11. Clc1nccc2c1ccc1ccccc12 [CBIQ]  87.1 ± 7.0%
12. CC(C)(CO)Cc1cc(C(C)(C)C)c(O)c(C(C)(C)C)c1 [CGP-7930]  87.6 ± 4.9%
13. CN(C)C(=O)[C@H](O)[C@H](Cc1ccccc1)NC(=O)c1cc2cc(Cl)ccc2[nH]1 [CP-91149]  87.6 ± 14.6%
14. COCCOc1cc2nc[nH]c(=O)c2cc1OCCOC [CP-380736]  88.0 ± 4.4%
15. C[C@@]12C(=O)OC(=O)[C@]1(C)[C@H]1CC[C@@H]2O1 [Cantharidin]  89.3 ± 25.6%
16. CCCCCCCCCCC(C)(C)C(=O)Nc1c(OC)cc(OC)cc1OC [CI-976]  89.4 ± 17.7%
17. NC(=O)N1c2ccccc2C=Cc2ccccc21 [Carbamazepine]  89.8 ± 14.0%
18. CCCC1O[C@@H]2C[C@H]3[C@@H]4CCC5=CC(=O)C=C[C@]5(C)[C@H]4[C@@H](O)C[C@]3(C)[C@]2(C(=O)CO)O1 (some centres unmarked) [Budesonide]  92.7 ± 8.6%
19. Nc1nc2ccc(Cl)cc2n2c(-c3ccccc3)nnc12 [CP-66713]  93.9 ± 10.2%
20. CCn1cnc2c(Nc3cccc(Cl)c3)nc(N[C@@H]3CCCC[C@@H]3N)nc21.Cl [CGP-74514A hydrochloride]  94.1 ± 9.9%
21. N#Cc1cc2nc([O-])c([O-])nc2cc1[N+](=O)[O-].[Na+].[Na+] [CNQX disodium]  94.7 ± 15.8%
22. O=c1[nH]c(=S)[nH]c(-c2ccccc2)c1Cc1c(O)ccc2ccccc12 [Cambinol]  94.8 ± 8.3%
23. C[N+](C)(C)CCOC(=O)CBr.[Br-] [Bromoacetylcholine bromide]  95.1 ± 8.8%
24. O=C(c1ccc2c(c1)OCCO2)N1CCCCC1 [CX 546]  95.5 ± 26.6%
25. CN1CCC[C@@H]1Cc1c[nH]c2ccc(Nc3ncccc3[N+](=O)[O-])cc12 [CP-135807]  96.1 ± 6.8%
26. C[C@H](CS)C(=O)N1CCC[C@H]1C(=O)O [Captopril]  97.2 ± 6.3%
27. CN1CCN(c2nc3cc(C(F)(F)F)ccc3n3cccc23)CC1.O=C(O)/C=C\C(=O)O [CGS-12066A maleate]  97.3 ± 10.3%
28. O=c1cc(-c2ccccc2F)[nH]c2cc3c(cc12)OCO3 [CHM-1 hydrate]  97.3 ± 5.3%
29. CC(C)(C=O)Cc1cc(C(C)(C)C)c(O)c(C(C)(C)C)c1 [CGP-13501]  97.4 ± 7.1%
30. CC1(C(=O)O)C2CCC(O2)C1(C)C(=O)O (centres unmarked) [Cantharidic Acid]  97.5 ± 13.0%
31. O.O.O=C(Nc1ccc2c(c1)CCN(Cc1ncn[nH]1)C2)c1ccccc1-c1ccc(C(F)(F)F)cc1 [CP-346086 dihydrate]  98.2 ± 12.5%
32. COc1ccccc1CN[C@@H]1CCCN[C@@H]1c1ccccc1.Cl.Cl.O [CP-100263 dihydrochloride hydrate]  98.5 ± 6.9%
33. CC(C)(NS(=O)(=O)c1ccc(Oc2ccc(F)cc2)cc1)C(=O)NO [CP-471474]  98.7 ± 17.5%
34. CC(NC(C)(C)C)C(=O)c1cccc(Cl)c1 (centres unmarked) [Bupropion hydrochloride]  98.9 ± 4.9%
35. Cl.Cl.O=c1ccc2[nH]cc(C3=CCNCC3)c2[nH]1 [CP-93129 dihydrochloride hydrate]  102.1 ± 6.9%
36. CCc1cccc(N(C)C(N)=Nc2cccc3ccccc23)c1 [CNS-1102]  102.3 ± 11.4%
37. CC(C)(C)OC(=O)NC1[C@H]2CNC[C@@H]12 (some centres unmarked) [CP-101537]  102.3 ± 6.7%
38. C=CCc1ccccc1OCC(O)CNC1(C)CCC(C(C)(C)NC(=O)CBr)CC1 (centres unmarked) [Bromoacetyl alprenolol menthane]  102.8 ± 4.8%
39. O=C1CC2(CCCC2)CC(=O)N1CCCCN1CCN(c2ncccn2)CC1 [Buspirone hydrochloride]  102.9 ± 6.0%
40. C[N+](C)(C)CCOC(N)=O [Carbachol]  103.1 ± 3.5%
41. CS(=O)(=O)O.Cn1cc(C(F)(F)F)nc1-c1ccc(OCC(O)CNCCOc2ccc(O)c(C(N)=O)c2)cc1 (centres unmarked) [CGP 20712A methanesulfonate]  106.4 ± 13.7%
42. CC(C)NCC(O)COc1ccc(COCCOC(C)C)cc1.CC(C)NCC(O)COc1ccc(COCCOC(C)C)cc1.O=C(O)/C=C/C(=O)O (centres unmarked) [Bisoprolol hemifumarate salt]  106.9 ± 6.1%
43. COc1ccc(/C=C/c2nc(NCCCN(C)C)c3ccccc3n2)cc1.Cl.Cl.O [CP-31398 dihydrochloride hydrate]  111.8 ± 1.4%

With `CCNC(=O)[C@H]1O[C@@H](n2cnc3c(N)nc(NCCc4ccc(CCC(=O)O)cc4)nc32)[C@H](O)[C@@H]1O` [CGS 21680, reference compound] the “hit in LOPAC primary screen (inhibited the binding of CA200645 by >40%)” value was “not identified as hits”.

Same assay, conditions: 10 μM compound, 25 nM CA200645, A3AR CHO cells

`Cn1c(=O)c2nc(C3CCCC3)[nH]c2n(C)c1=O` [CPT, reference compound] was tested, and the “hit in LOPAC primary screen (inhibited the binding of CA200645 by >40%)” value was “not identified as hits”.
With `Cn1c(=O)c2c(nc(/C=C/c3cccc(Cl)c3)n2C)n(C)c1=O` [CSC, reference compound] the “hit in LOPAC primary screen (inhibited the binding of CA200645 by >40%)” value was “not identified as hits”.
With `Nc1nc(Nc2ccccc2)nc2c1ncn2[C@@H]1O[C@H](CO)[C@@H](O)[C@H]1O` [CV1808, 2-phenylaminoadenosine, reference compound] the “hit in LOPAC primary screen (inhibited the binding of CA200645 by >40%)” value was “identified”.

Same assay, conditions: % of 25 nM CA200645 binding in the presence of 10 μM compound, LOPAC full screen, A3AR CHO cells

With `Nc1nc(Nc2ccccc2)nc2c1ncn2[C@@H]1O[C@H](CO)[C@@H](O)[C@H]1O` [CV1808, 2-phenylaminoadenosine, reference compound] the “% Total CA200645 binding” value was 53.3 ± 19.9%.

Same assay, conditions: % of control wells (1% DMSO and 25 nM CA200645); compounds at 10 µM; whole live cells expressing the A3AR; mean ± SD, three experiments in duplicate

With `O=C(O)/C=C/c1ccc(O)c(O)c1` [Caffeic Acid] the “% 25 nM CA200645 binding” value was 100.0 ± 4.2%.

Same assay, conditions: compounds tested at 10 µM; % of control wells (1% DMSO and 25 nM CA200645); […]; mean ± SD, three experiments in duplicate

In the case of `CCCCNc1cc(C(=O)O)cc(S(N)(=O)=O)c1Oc1ccccc1` [Bumetanide], the “% 25 nM CA200645 binding” value is reported as 94.3 ± 2.5%.

Same assay, conditions: compounds tested at 10 µM; % of control wells (1% DMSO and 25 nM CA200645); whole live cells expressing the A3AR; mean ± SD, three experiments in duplicate

In order of rising “% 25 nM CA200645 binding” value:
1. Oc1cc2c(cc1O)CN(C(=S)NCCc1ccc(Cl)cc1)CCC2 [Capsazepine]  90.6 ± 11.8%
2. NC(=O)c1cc(N2CC2)c([N+](=O)[O-])cc1[N+](=O)[O-] [CB 1954]  93.7 ± 2.8%
3. CC1(C)CCC(NC(=O)[C@@H](N)CCC(=O)O)CC1 [CR 2249]  109.1 ± 19.6%
